These results are taken from patent US7265103B2, “Substituted amino isoxazoline derivatives and their use as anti-depressants” (Janssen Pharmaceutica NV., priority 2002, dated 2007).

Structures can show the parent of a compound that is named as a salt.

Data set [1] addresses T1, hα2C receptor (Homo sapiens, UniProt P18825).
T1 construct: expressed in transfected cells; host or cells: CHO cells
T1 sequence (P18825 1-462): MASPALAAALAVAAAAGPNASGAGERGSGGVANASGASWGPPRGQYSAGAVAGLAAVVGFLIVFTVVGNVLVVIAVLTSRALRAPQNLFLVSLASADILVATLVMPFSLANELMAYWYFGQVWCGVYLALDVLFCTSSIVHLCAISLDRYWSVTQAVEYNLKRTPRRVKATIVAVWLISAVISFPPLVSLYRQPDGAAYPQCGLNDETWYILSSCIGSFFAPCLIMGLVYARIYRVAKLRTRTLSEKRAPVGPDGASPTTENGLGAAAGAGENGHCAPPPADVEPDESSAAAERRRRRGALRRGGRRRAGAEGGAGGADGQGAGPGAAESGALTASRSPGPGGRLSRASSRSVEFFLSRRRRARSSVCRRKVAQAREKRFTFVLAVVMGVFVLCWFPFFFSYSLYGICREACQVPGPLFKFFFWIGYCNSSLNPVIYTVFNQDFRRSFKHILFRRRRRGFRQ
Description: Radioligand binding experiment for α2C-adrenergic receptor ([3H]-raulwolscine). Conditions: CHO cell membranes with human α2C receptor, [3H]raulwolscine 1 nM; read-out: pIC50 α2C (converted). The method in brief:
(§1)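 Membranes from CHO cells stably expressing human α2A or α2C receptors (sodium butyrate-induced) incubated with 1 nM [3H]raulwolscine in 25 mM glycylglycine pH 8.0 for 60 min at 25° C, then filtered. Non-specific binding defined with 1 μM oxymetazoline (α2A) or 1 μM spiroxatrine (α2C); pIC50 from sigmoidal competition curves.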

In data set [2] the target is T2, h5-HT transporter (Homo sapiens, UniProt P31645).
T2 construct: Human platelet membranes (Oceanix Biosciences Corporation, Hanover, Md., USA) were thawed; tissue Oceanix Biosciences Corporation; host or cells: human platelet membranes
Kind of data set: Radioligand binding experiment for 5-HT transporter ([3H]paroxetine). Conditions: human platelet membranes, [3H]paroxetine 0.5 nM. Put shortly:
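Competition binding on human platelet membranes (50-100 μg protein) in 50 mM Tris-HCl, 120 mM NaCl, 5 mM KCl with 0.5 nM [3H]paroxetine, 60 min at 25 °C, filtration and scintillation counting. Non-specific binding defined with 1 μM imipramine; pIC50 from nonlinear sigmoidal fits of percent total binding.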

Data set [3] concerns the target T3, hα2A receptor (Homo sapiens, UniProt P08913).
T3 construct: expressed in transfected cells; host or cells: CHO cells
T3 sequence (P08913 1-465): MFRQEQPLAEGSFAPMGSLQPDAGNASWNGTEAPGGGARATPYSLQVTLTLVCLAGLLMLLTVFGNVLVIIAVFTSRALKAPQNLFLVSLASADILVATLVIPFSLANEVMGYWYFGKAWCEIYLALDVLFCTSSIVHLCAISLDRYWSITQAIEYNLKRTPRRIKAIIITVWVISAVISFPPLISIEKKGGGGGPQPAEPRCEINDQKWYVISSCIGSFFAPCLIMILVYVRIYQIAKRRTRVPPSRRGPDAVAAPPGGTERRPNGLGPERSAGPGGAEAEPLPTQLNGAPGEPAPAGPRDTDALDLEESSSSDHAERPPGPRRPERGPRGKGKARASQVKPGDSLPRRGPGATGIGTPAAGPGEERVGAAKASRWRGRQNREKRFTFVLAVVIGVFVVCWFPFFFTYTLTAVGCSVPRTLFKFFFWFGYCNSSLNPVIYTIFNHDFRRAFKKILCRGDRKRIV
Description: Radioligand binding experiment for α2A-adrenergic receptor ([3H]-raulwolscine). Conditions: CHO cell membranes with human α2A receptor, [3H]raulwolscine 1 nM; read-out: pIC50 α2A (converted). Put shortly:
as §1

T2 sequence (P31645 whole entry): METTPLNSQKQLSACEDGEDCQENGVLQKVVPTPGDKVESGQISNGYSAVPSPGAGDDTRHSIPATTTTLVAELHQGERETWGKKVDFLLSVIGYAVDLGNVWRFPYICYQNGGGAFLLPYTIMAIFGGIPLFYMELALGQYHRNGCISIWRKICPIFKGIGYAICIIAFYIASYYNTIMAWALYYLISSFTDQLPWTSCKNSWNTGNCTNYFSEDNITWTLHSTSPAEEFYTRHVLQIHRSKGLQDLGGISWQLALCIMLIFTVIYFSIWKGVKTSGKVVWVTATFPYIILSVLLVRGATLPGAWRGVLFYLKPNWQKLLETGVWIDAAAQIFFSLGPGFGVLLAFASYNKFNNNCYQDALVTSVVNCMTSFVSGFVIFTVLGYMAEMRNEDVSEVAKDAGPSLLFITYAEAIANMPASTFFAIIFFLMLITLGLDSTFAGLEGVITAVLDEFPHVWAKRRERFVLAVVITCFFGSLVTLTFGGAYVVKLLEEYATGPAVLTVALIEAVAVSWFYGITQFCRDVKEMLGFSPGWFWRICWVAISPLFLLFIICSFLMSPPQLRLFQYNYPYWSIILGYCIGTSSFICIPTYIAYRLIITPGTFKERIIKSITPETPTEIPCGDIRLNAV

`C=CC(=O)Nc1ccc2c(c1)OCC1C2=NOC1CN1CCN(CC(C)=Cc2ccccc2)CC1` (stereo not shown) [Compound 54] registered a melting point of 136.1 to 172.9 °C. Moreover, in data set [1], the IC50 was 0.794 nM. In addition, in data set [2], the IC50 was 25.1 nM. Besides, in data set [3], the IC50 was 1.58 nM.

Turning to `CNCCNc1ccc2c(c1)OCC1C2=NOC1CN1CCN(CC(C)=Cc2ccc(F)cc2)CC1` (stereo not shown) (as salt: HCl) [Compound 20], the melting point was 199 to 235.5 °C.

The molecule `CC(=Cc1ccc(F)cc1)CN1CCN(CC2ON=C3c4ccc(NCCN5CCCC5)cc4OCC32)CC1` (stereo not shown) [Compound 28] returned a melting point of 108.3 to 121.8 °C. Further, in data set [1], the IC50 was 3.98 nM. In data set [2], this molecule showed an IC50 of 3.16 nM. The IC50 in data set [3] was 63.1 nM.

In the case of `CNCCN(C)c1ccc2c(c1)OCC1C2=NOC1CN1CCN(CC(C)=Cc2ccc(F)cc2)CC1` (stereo not shown) [Compound 21], the melting point is 98.4 to 105.3 °C. The IC50 in data set [1] was 2 nM. In addition, the IC50 in data set [2] was 3.98 nM. The IC50 in data set [3] was 7.94 nM.

Molecule `CC(=Cc1ccc(F)cc1)CN1CCN(CC2ON=C3c4ccc(N5CCOCC5)cc4OCC32)CC1` (stereo not shown) [Compound 84] had a melting point of 179.2 to 188.8 °C. In addition, the IC50 in data set [1] was 1.26 nM. This molecule also had an IC50 in data set [2] of 25.1 nM. Besides, the IC50 in data set [3] is 6.31 nM.

With `CC(=O)Nc1ccc2c(c1)OCC1C2=NOC1CN1CCN(C/C(C)=C/c2ccccc2)CC1` (stereo not shown) [Compound 6], the melting point lay in the range of 112.1 to 126.7 °C. The IC50 in data set [1] was 2.51 nM. Further, in data set [2], the IC50 was 50.1 nM. Moreover, the IC50 in data set [3] was 3.16 nM.

With `COc1cc2c(cc1N1CCOCC1)OCC1C2=NOC1CN1CCN(CC(C)=Cc2ccccc2)CC1` (stereo not shown) [Compound 82], the melting point is 143.5 to 145.9 °C. The IC50 in data set [1] is 1.26 nM. Also, the IC50 in data set [2] is 39.8 nM. Further, in data set [3], the IC50 was 1.58 nM.

For `Clc1ccc(CN2CCN(CC3ON=C4c5cc6c(cc5OCC43)NCCO6)CC2)cc1` (stereo not shown) [Compound 94], the melting point fell in the range of 186.5 to 198 °C. For the same molecule, the IC50 in data set [1] is 31.6 nM. In data set [2], this molecule had an IC50 of 126 nM. Besides, in data set [3], the IC50 was 316 nM.

For `CC(=Cc1ccccc1)CN1CCN(CC2ON=C3c4ccc(N(C)c5ccccc5)cc4OCC32)CC1` (stereo not shown) [Compound 41], the melting point lay within 125.9 to 139.7 °C. Besides, the IC50 in data set [1] is 25.1 nM. Further, the IC50 in data set [2] is 158 nM. Moreover, the IC50 in data set [3] is 25.1 nM.

`c1ccc2cc(CN3CCN(CC4ON=C5c6cc7c(cc6OCC54)NCCO7)CC3)ccc2c1` (stereo not shown) [Compound 92]: the melting point fell in the range of 85.3 to 103.9 °C. Also, the IC50 in data set [1] was 2.51 nM. Also, the IC50 in data set [2] is 5.01 nM. Further, in data set [3], the IC50 was 20 nM.

`CC(=Cc1ccc(F)cc1)CN1CCN(CC2ON=C3c4ccc(N5CCN(c6ccccc6)CC5)cc4OCC32)CC1` (stereo not shown) [Compound 79] came in with a melting point of 203.5 to 206.2 °C. In addition, the IC50 in data set [1] was 7.94 nM. The molecule further had an IC50 in data set [2] of 200 nM. For the same molecule, the IC50 in data set [3] is 251 nM.

Consider `C/C(=C\c1ccccc1)CN1CCN(CC2ON=C3c4cc(N5CCOCC5)ccc4OCC32)CC1` (stereo not shown) [Compound 4], for which the melting point lay in the range of 121.8 to 125.9 °C. In addition, the IC50 in data set [1] was 2.51 nM. The molecule further had an IC50 in data set [2] above 1000 nM. In addition, the IC50 in data set [3] was 12.6 nM.

As to `COCC(=O)N1CCOc2cc3c(cc21)OCC1C3=NOC1CN1CCN(C/C(C)=C/c2ccccc2)CC1` (stereo not shown) [Compound 15], the melting point lay in the range of 118.9 to 127.6 °C. The IC50 in data set [1] is 0.794 nM. This molecule gave an IC50 in data set [2] of 10 nM. For the same molecule, in data set [3], the IC50 is 3.16 nM.

On to `CC(=Cc1ccccc1)CN1CCN(CC2ON=C3c4ccc(NC(=O)NC5CCCCC5)cc4OCC32)CC1` (stereo not shown) [Compound 62], for which the melting point fell in the range of 121.1 to 136.5 °C. Also, the IC50 in data set [1] was 6.31 nM. The IC50 in data set [2] was 39.8 nM. For the same molecule, in data set [3], the IC50 is 25.1 nM.

Molecule `CC(=Cc1ccccc1)CN1CCN(CC2ON=C3c4ccc(Nc5cccc(C#N)c5)cc4OCC32)CC1` (stereo not shown) [Compound 44] came in with a melting point of 152.7 to 162.6 °C. The IC50 in data set [1] was 20 nM. The molecule also had an IC50 in data set [2] of 15.8 nM. Besides, the IC50 in data set [3] was 15.8 nM.

Molecule `C/C(=C\c1ccccc1)CN1CCN(CC2ON=C3c4ccc(NCc5ccccc5)cc4OCC32)CC1` (stereo not shown) [Compound 2] registered a melting point of 108.9 to 114.7 °C. The molecule also had an IC50 in data set [2] of 31.6 nM. The IC50 in data set [3] was 15.8 nM.

The molecule `CC(=Cc1ccc(F)cc1)CN1CCN(CC2ON=C3c4ccc(N(C)CCN)cc4OCC32)CC1` (stereo not shown) (as salt: HCl) [Compound 19] had a melting point of 218 to 226 °C.

As to `CC(=Cc1ccccc1)CN1CCN(CC2ON=C3c4ccc(NC(=O)c5cccnc5)cc4OCC32)CC1` (stereo not shown) [Compound 67], the figures for the IC50 in data set [1], in data set [2] and in data set [3] were 1.26 nM, 12.6 nM and 2 nM, respectively.

In the case of `CC(=O)N1CCOc2cc3c(cc21)OCC1C3=NOC1CN1CCN(C/C(C)=C/c2ccccc2)CC1` (stereo not shown) [Compound 12], the values for the IC50 in data set [1], in data set [2] and in data set [3] were 1 nM, 31.6 nM and 2 nM, respectively.

As for `COc1cc2c(cc1NC(=O)Nc1ccccc1)OCC1C2=NOC1CN1CCN(CC(C)=Cc2ccc(F)cc2)CC1` (stereo not shown) [Compound 124], the results for the IC50 in data set [1], in data set [2] and in data set [3] were 158 nM, 50.1 nM and 316 nM, respectively.

Consider `C/C(=C\c1ccccc1)CN1CCN(CC2ON=C3c4ccc(NC(=O)[C@@H]5CCCN5)cc4OCC32)CC1` (stereo partly shown) [Compound 57], for which the IC50 was 0.631 nM in data set [1], 25.1 nM in data set [2] and 5.01 nM in data set [3].

Take `CC(=Cc1ccc(F)cc1)CN1CCN(CC2ON=C3c4ccc(N5CCNCC5)cc4OCC32)CC1` (stereo not shown) [Compound 136]: the IC50 in data set [1] is 5.01 nM; in data set [2], 7.94 nM; in data set [3], 39.8 nM.

In the case of `COc1cc2c(cc1NC(=O)C1CCC1)OCC1C2=NOC1CN1CCN(CC(C)=Cc2ccc(F)cc2)CC1` (stereo not shown) [Compound 115], the IC50 was 39.8 nM in data set [1], 25.1 nM in data set [2] and 39.8 nM in data set [3].

Regarding `COc1cc2c(cc1NCCN)OCC1C2=NOC1CN1CCN(CC(C)=Cc2ccc(F)cc2)CC1` (stereo not shown) [Compound 97], the IC50 in data set [1] was 6.31 nM; in data set [2], 15.8 nM; in data set [3], 31.6 nM.

For `CCC(C)C(=O)Nc1cc2c(cc1OC)C1=NOC(CN3CCN(CC(C)=Cc4ccc(F)cc4)CC3)C1CO2` (stereo not shown) [Compound 114], the IC50 was 20 nM in data set [1], 31.6 nM in data set [2] and 25.1 nM in data set [3].

As to `CC(=Cc1cccc(F)c1)CN1CCN(CC2ON=C3c4ccc(N(C)CCO)cc4OCC32)CC1` (stereo not shown) [Compound 35], the IC50 in data set [1] was 1.26 nM; in data set [2], 7.94 nM; in data set [3] it was 3.16 nM.

`COc1cc2c(cc1N1CCOCC1)OCC1C2=NOC1CN1CCN(CC(C)=Cc2ccc(F)cc2)CC1` (stereo not shown) [Compound 85]: the results for the IC50 in data set [1], in data set [2] and in data set [3] were 3.16 nM, 63.1 nM and 10 nM, respectively.

Consider `COc1cc2c(cc1NC(C)=O)OCC1C2=NOC1CN1CCN(CC(C)=Cc2cccc(F)c2)CC1` (stereo not shown) [Compound 49], for which the IC50 was 0.251 nM in data set [1], 7.94 nM in data set [2] and 1.26 nM in data set [3].

In the case of `CC(=Cc1ccccc1)CN1CCN(CC2ON=C3c4ccc(NC(=O)c5ccccc5)cc4OCC32)CC1` (stereo not shown) [Compound 55], the results for the IC50 in data set [1], in data set [2] and in data set [3] were 3.16 nM, 25.1 nM and 5.01 nM, respectively.

For `COc1cc2c(cc1N1CCN(C)CC1)OCC1C2=NOC1CN1CCN(CC(C)=Cc2cccc(F)c2)CC1` (stereo not shown) [Compound 76], the results for the IC50 in data set [1], in data set [2] and in data set [3] were 0.794 nM, 3.16 nM and 3.98 nM, respectively.

On to `CC(=Cc1ccc(F)cc1)CN1CCN(CC2ON=C3c4ccc(NC(=O)OC(C)(C)C)cc4OCC32)CC1` (stereo not shown) [Compound 58], for which the IC50 in data set [1] was 31.6 nM; in data set [2], 31.6 nM; in data set [3], 63.1 nM.

For orientation: melting point means the temperature, or range, at which the solid turns liquid.
